Here are results for seven compounds from patent US20100004244A1, “USE OF CB2 RECEPTOR AGONISTS FOR PROMOTING NEUROGENESIS” (priority 2006, published 2010).

One may read the IC50 as the concentration that gives 50% inhibition.

The subject of assay [1] is basal ganglia. Conditions: cited from earlier work.
Assay [2] deals with ERK and Akt. Description: ERK and Akt phosphorylation in neural progenitors (Western blot). Type of assay: cell-based, mouse. Conditions: FIG. 3F. How it is done: Identical protein amounts of cleared cell extracts were subjected to SDS-PAGE, transferred to PVDF membranes, and following antibody incubations developed with enhanced chemiluminiscence detection kit [Aguado, T. et al., FASEB J. 19, 1704-6, 2005]. Loading controls were performed with an anti-α-tubulin antibody.
On the technique in general: In western blotting, separated proteins are transferred to a membrane and probed.

The target in assay [3] is human CB1 receptors (Homo sapiens, UniProt P21554). To be noted: read-out: IC50 for binding to human CB1 receptors; as disclosed in WO 03/064359; cited from earlier work.
Sequence of human CB1 receptors (P21554 whole entry): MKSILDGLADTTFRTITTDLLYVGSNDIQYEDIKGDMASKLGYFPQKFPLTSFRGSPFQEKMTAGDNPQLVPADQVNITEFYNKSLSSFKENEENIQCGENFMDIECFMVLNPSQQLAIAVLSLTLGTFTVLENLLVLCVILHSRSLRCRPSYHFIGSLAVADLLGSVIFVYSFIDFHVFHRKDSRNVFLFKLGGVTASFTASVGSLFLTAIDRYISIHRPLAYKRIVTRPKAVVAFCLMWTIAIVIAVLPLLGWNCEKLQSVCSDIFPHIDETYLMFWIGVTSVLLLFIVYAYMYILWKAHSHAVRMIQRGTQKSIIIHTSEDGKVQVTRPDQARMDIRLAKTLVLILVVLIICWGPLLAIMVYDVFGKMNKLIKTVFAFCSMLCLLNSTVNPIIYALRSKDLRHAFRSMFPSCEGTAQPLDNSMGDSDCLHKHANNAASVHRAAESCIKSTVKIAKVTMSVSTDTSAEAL
Assay [4] concerns neural progenitor cell proliferation in the dentate gyrus. Description: In vivo hippocampal neural progenitor proliferation (BrdU-positive cells in dentate gyrus). Also on record: species or system mouse. To be noted: FIG. 4B; for hippocampal progenitor proliferation in vivo: wild-type adult mice, i.p. 5 consecutive days, HU-308 15 mg/kg, SR144528 1 mg/kg. How it is done:
Adult CB2 receptor knock-out male mice (8-week old) and their respective wild-type littermates were injected i.p. with 50 mg/kg BrdU daily for 3 days, and perfused 1 day later. […] Control animals received the corresponding vehicle injection (100 μl PBS supplemented with 0.5 mg defatted bovine serum albumin and 4% dimethylsulfoxide). BrdU was administered daily during the pharmacological administration period. In the case of experiments on kainate-induced excitotoxicity, animals were injected with 15 mg/kg kainate or vehicle. E17.5 mouse embryos from mothers injected twice with 100 mg/kg BrdU (30-min interval between injections) were obtained 1 h after the first injection.
At the end of the study, animals were euthanized and their brains were fixed into 4% paraformaldehyde in PBS until further analysis.
Mice were perfused and immunostaining was performed in 30-μm brain coronal free-floating sections [Rueda, D. et al., J. Biol. Chem. 277, 4645-50, 2002]. Sections were incubated with polyclonal anti-CB2 antibody together with anti-nestin, anti-Neu, or anti-GFAP antibodies followed by secondary staining for rabbit and mouse IgGs with highly cross-adsorbed AlexaFluor 594 and AlexaFluor 488 secondary antibodies (Molecular Probes), respectively. Neural progenitor proliferation was determined with anti-BrdU antibody and secondary anti-rat IgG-AlexaFluor 594 in sections counterstained with TOTO-3 iodide. Preparations were examined using Leica software and SP2 AOBS microscope with 2 passes with a Kalman filter and a 1024×1024 collection box. BrdU^+ cells were counted in the subgranular zone and granule cell layer of the dentate gyrus. A 1-in-6 series of adult hippocampal mouse sections located between 1.3 and 2.1 mm posterior to bregma were employed. […] Frozen mouse embryo sections were incubated with anti-BrdU antibody together with Yoyo-1 iodide, and positive cells were determined in 7 sections per animal.
Results are expressed as number of BrdU positive cells per section in the dentate gyrus of the animals.

The subject of assay [5] is neural progenitors. In words: Neurosphere generation and self-renewal of neural progenitors. Type of assay: cell-based, mouse. Conditions: for neurosphere generation in CB2-deficient neural progenitors / primary neurosphere generation / neural progenitor self-renewal: 30 nM; for primary neurosphere generation: wild-type E17.5 progenitors, 7 days; for neural progenitor self-renewal: wild-type progenitors, 5 consecutive passages, FIG. 3C. As to the method: Multipotent self-renewing progenitors were obtained from the dissected cortices of mice at the indicated developmental stages and grown in chemically-defined medium constituted by Dulbecco's modified Eagle's and F12 media supplemented with N2 (Invitrogen), 0.6% glucose, non-essential amino acids, 50 mM Hepes, 2 μg/ml heparin, 20 ng/ml epidermal growth factor and 20 ng/ml basic fibroblast growth factor [Aguado, T. et al., J. Neurosci. 26, 1551-61, 2006]. Clonal neurospheres were cultured at 1000 cells/ml, dissociated with accutase (Sigma-Aldrich, Missouri, USA) and experiments were carried out with early (up to 10) passage neurospheres. Neurosphere generation experiments were performed in 96-well dishes with 100 μl of medium, and the number of neurospheres was quantified at predetermined time points by phase-contrast microscopy. Embryonic neural progenitors from wild-type and CB2-deficient mice were cultured (10,000 cells/ml) in the continuous presence of cannabinoids or controls for the indicated number of passages (one passage every 4 days).
Adult neural progenitors were obtained from hippocampi of 4-month-old adult mice and cultured as described above. Neural progenitor cell differentiation was performed as described.

For assay [6], the system named is substantia nigra. To be noted: mice treated with the neurotoxin MPTP; cited from earlier work.
For assay [7], the system named is neural progenitors. Description: BrdU cell proliferation assay in dissociated neurospheres. Type of assay: cell-based, mouse. Conditions: for number of BrdU-incorporating cells: 30 nM, 16 hours, FIG. 3D; for effect on HU-308 induction of cell proliferation: PD98059 10 μM, LY294,002 5 μM, with HU-308 30 nM, FIG. 3E, confirmed in neurosphere generation assays. How it is done: These studies involve the use of bromodeoxyuridine (BrdU), a thymidine analog incorporated into DNA during the S phase of the cell cycle, which allows visualizing cell proliferation. Neural progenitor proliferation was determined by quantifying BrdU-positive cells 16 hours after incubation with 10 μg/ml BrdU, followed by immunostaining [Aguado, T. et al., FASEB J. 19, 1704-6, 2005].
Results are expressed as percentage of BrdU-positive cells over total cells.

Assay [8] deals with embryonic hippocampal neural progenitor cells. Conditions: Jiang et al. 2005; cited from earlier work.
For assay [9], the system named is newborn neurons. To be noted: chronic administration, Jiang et al. 2005; cited from earlier work.
Assay [10] deals with cannabinoid receptors. To be noted: cited from earlier work.

For `CCCCCCC(C)(C)c1cc(OC)c(C2C=C(CO)C3CC2C3(C)C)c(OC)c1` (single isomer, unassigned; (+)) [HU-308, (+) {4-[4-(1,1-dimethylheptyl)-2,6-dimethoxyphenyl]-6,6-dimethyl-bicyclo[3.1.1]hept-2-en-2-yl}-methanol], in assay [1] (non-lesioned side), the “GABA level and dopamine transmission in the non-lesioned side” value is on record as “did not alter the parameters monitored”. Besides, the “extent of cell death in the basal ganglia” value in assay [1] (rats, intrastriatal injection of malonate) was “reduces the extent of cell death”. Further, the “ERK and Akt phosphorylation” value in assay [2] (15 min (ERK) or 2 min (Akt)) is “stimulated ERK and Akt”. Further, the IC50 in assay [3] is 3.6 µM. Moreover, the “hippocampal progenitor proliferation in CB2-deficient mice” value in [4] (CB2-/- adult mice, 15 mg/kg i.p. 5 days) was “lack of HU-308 agonistic effect”. For the same compound, the “hippocampal progenitor proliferation in vivo” value in assay [4] is reported as “increased progenitor proliferation”. Besides, in [5] (FIG. 3B), the “neurosphere generation in CB2-deficient neural progenitors” value is “neither HU-308 nor JWH-133 was able to enhance neurosphere generation” and the primary neurosphere generation result is reported as “increased”. Also, in assay [5], the neural progenitor self-renewal result was “increased”. The “extent of cell death in the substantia nigra” value in [6] was “reduces the extent of cell death”. Further, the “number of BrdU-incorporating cells” value in assay [7] is “increased the number of BrdU-incorporating cells in a CB2-dependent manner”.

As for `CCCCCCC(C)(C)c1cc(O)c2c(c1)OC(C)(C)[C@@H]1CC=C(CO)C[C@@H]21` [HU-210, 7-hydroxy-Δ^6-tetrahydrocannabinol-1,1-dimethyl-heptyl], the “proliferation and differentiation of embryonic hippocampal neural progenitor cells” value in [8] is “promotes proliferation of said embryonic cells without affecting their differentiation”. In addition, in assay [9], the “measures of anxiety- and depression-like behavior” value is “reduced measures of anxiety- and depression-like behavior”; the “number of newborn neurons” value is “increased the number of newborn neurons”.

On to `COc1cccc(-c2cc(=O)c3ccccc3o2)c1N` [PD98059], for which the “effect on HU-308 induction of cell proliferation” value in [7] was “prevented by both inhibitors”.

Consider `O=c1cc(N2CCOCC2)oc2c(-c3ccccc3)cccc12` [LY294,002], for which the “effect on HU-308 induction of cell proliferation” value in [7] is listed as “prevented by both inhibitors”.

As for SR144528, the “effect on HU-308 stimulation of ERK and Akt” value in assay [2] was “this action was prevented”. For the same compound, the “hippocampal progenitor proliferation in vivo” value in [4] was “exerted the opposite action”. Further, the “effect on agonist-increased primary neurosphere generation and self-renewal” value in assay [5] (2 μM with HU-308 or JWH-133 30 nM, FIG. 3B, 3C) is listed as “both actions were prevented”. Also, in assay [5] (data not shown), the “effect on agonist-increased neurosphere generation in postnatal and adult progenitors” value is on record as “this action was prevented”.

As to `CCCC(C)(C)c1ccc2c(c1)OC(C)(C)[C@@H]1CC=C(C)C[C@@H]21` [JWH-133], in assay [5] (FIG. 3B), the “neurosphere generation in CB2-deficient neural progenitors” value is listed as “neither HU-308 nor JWH-133 was able to enhance neurosphere generation” and the primary neurosphere generation entry is given as “increased”. In assay [5] (adult progenitors), the “percentage of neurosphere number relative to vehicle incubations” value worked out at 149±6%. In addition, the “percentage of neurosphere number relative to vehicle incubations” value in assay [5] (postnatal progenitors) was determined as 154±22%. Also, the neural progenitor self-renewal entry in assay [5] is “increased”. Besides, the “number of BrdU-incorporating cells” value in assay [7] was “increased the number of BrdU-incorporating cells in a CB2-dependent manner”.

As to `CCCCCCC(C)(C)c1cc(O)c2c(c1)OC(C)(C)[C@@H]1CC=C(CO)C[C@@H]21` [HU-211, 7-hydroxy-Δ^6-tetrahydrocannabinol-1,1-dimethyl-heptyl], the “affinity to the cannabinoid receptors” value in [10] is recorded as “low affinity”.
